This note sets out measurements from patent publication US9187472B2 (AbbVie Inc., priority 2012, dated 2015).

The target of one test is NAMPT (Homo sapiens, UniProt P43490). Briefly: TR-FRET Binding Assay of NAMPT with PRPP. As to conditions: with 200 μM PRPP and 2.5 mM ATP; 2 nM NAMPT, 2 nM probe, 16 hours equilibration. In outline:
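Run in the presence of substrates (200 μM PRPP, 2.5 mM ATP) with final 2 nM NAMPT, 2 nM probe, 1 nM Tb-anti-His antibody and 2% DMSO. Mixtures equilibrated 16 h before TR-FRET measurement so test compounds could be enzymatically modified.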

Test [1] has as its target NAMPT (human, recombinant, C-terminally His-tagged) (Homo sapiens, UniProt P43490). Briefly: Time-Resolved Fluorescence Resonance Energy Transfer (TR-FRET) Binding Assay of NAMPT. The following applies: without substrates; 6.8 nM NAMPT, 200 nM probe, 3 hours equilibration. In outline: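 Probe displacement by compound was measured with 6.8 nM NAMPT, 200 nM Oregon Green 488-conjugated nicotinamide-competitive inhibitor probe and 1 nM Tb-anti-His antibody in 50 mM HEPES pH 7.5, 100 mM NaCl, 10 mM MgCl2, 1 mM DTT, 1% glycerol, 2% DMSO (final). After 3 h at room temperature, TR-FRET was read; IC50 from four-parameter logistic fit.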
(In general: TR-FRET usually uses a lanthanide donor and a delayed reading to cut background.)

Another test concerns PC3 cells. Briefly: NAMPT Cell Proliferation Assay. The class given is cell-based. As to conditions: Homo sapiens, PC-3, 120 h, 5 days incubation, cell viability by Cell Titer Glo. In outline:
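Proliferation of PC3 cells treated 5 days with a 10-fold compound series (top 10 μM) was quantified by Cell Titer Glo luminescence; IC50s were fitted from percent inhibition.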

Sequence of NAMPT (human, recombinant, C-terminally His-tagged) (P43490 whole entry): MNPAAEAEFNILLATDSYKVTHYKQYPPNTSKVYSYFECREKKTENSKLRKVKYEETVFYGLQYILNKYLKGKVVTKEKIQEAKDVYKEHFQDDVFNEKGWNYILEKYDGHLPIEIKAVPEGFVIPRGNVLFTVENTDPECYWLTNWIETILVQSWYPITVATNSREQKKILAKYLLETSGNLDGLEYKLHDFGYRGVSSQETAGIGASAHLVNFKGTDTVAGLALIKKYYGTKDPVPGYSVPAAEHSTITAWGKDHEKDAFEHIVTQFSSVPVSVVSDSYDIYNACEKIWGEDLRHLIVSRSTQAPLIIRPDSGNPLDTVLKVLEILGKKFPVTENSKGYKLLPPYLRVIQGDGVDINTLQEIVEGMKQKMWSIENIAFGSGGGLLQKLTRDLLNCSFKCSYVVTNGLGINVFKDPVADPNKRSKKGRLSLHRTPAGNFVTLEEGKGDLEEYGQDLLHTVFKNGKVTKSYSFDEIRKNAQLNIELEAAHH
Sequence of NAMPT (P43490 whole entry): as above

By IC50 is commonly meant the concentration needed to halve the response being measured. Consider `Cc1ccccc1C(=O)N1CCC(c2ccc(C(=O)NCc3ccn4ccnc4c3)cc2)C1` (stereo not drawn) [Example 595, N-(imidazo[1,2-a]pyridin-7-ylmethyl)-4-[1-(2-methylbenzoyl)pyrrolidin-3-yl]benzamide], for which the IC50 at NAMPT came to 0.000746 µM; in test [1] it was 0.133 µM; in the test with PC3 cells, 0.00693 µM.
For `O=C(NCc1ccn2ccnc2c1)c1ccc(C2CCN(C(=O)c3ccc(Cl)cc3)C2)cc1` (stereo not drawn) [Example 596, 4-[1-(4-chlorobenzoyl)pyrrolidin-3-yl]-N-(imidazo[1,2-a]pyridin-7-ylmethyl)benzamide] the same measures were 0.000909 µM, 0.691 µM and 0.257 µM.
Consider `O=C(NCc1ccn2ccnc2c1)c1ccc(C2CCN(C(=O)c3cccc(Cl)c3)C2)cc1` (stereo not drawn) [Example 597, 4-[1-(3-chlorobenzoyl)pyrrolidin-3-yl]-N-(imidazo[1,2-a]pyridin-7-ylmethyl)benzamide], for which the half-maximal inhibitory concentration (IC50) turned out to be 0.000862 µM on NAMPT, 0.232 µM in test [1] and 0.0335 µM with PC3 cells.
For `CCC(C)(C)C(=O)N1CCC(c2ccc(C(=O)NCc3ccn4ccnc4c3)cc2)C1` (stereo not drawn) [Example 598, 4-[1-(2,2-dimethylbutanoyl)pyrrolidin-3-yl]-N-(imidazo[1,2-a]pyridin-7-ylmethyl)benzamide] the same measures were 0.000804 µM, 0.457 µM and 0.0166 µM.
For `O=C(NCc1ccn2ccnc2c1)c1ccc(C2CCN(C(=O)c3cc(F)cc(F)c3)C2)cc1` (stereo not drawn) [Example 599, 4-[1-(3,5-difluorobenzoyl)pyrrolidin-3-yl]-N-(imidazo[1,2-a]pyridin-7-ylmethyl)benzamide], the IC50 was found to be 0.000786 µM at NAMPT, 0.527 µM in test [1] and 0.0523 µM in the test on PC3 cells.
`Cc1ccc(C(=O)N2CCC(c3ccc(C(=O)NCc4ccn5ccnc5c4)cc3)C2)cc1` (stereo not drawn) [Example 600, N-(imidazo[1,2-a]pyridin-7-ylmethyl)-4-[1-(4-methylbenzoyl)pyrrolidin-3-yl]benzamide]: the IC50 on NAMPT is 0.000169 µM; in test [1] it was 0.51 µM; in the test with PC3 cells, 0.11 µM.
The matching figures for `CC(C)CC(=O)N1CCC(c2ccc(C(=O)NCc3ccn4ccnc4c3)cc2)C1` (stereo not drawn) [Example 601, N-(imidazo[1,2-a]pyridin-7-ylmethyl)-4-[1-(3-methylbutanoyl)pyrrolidin-3-yl]benzamide]: 0.000682 µM, 0.712 µM and 0.0567 µM.
For `CC(C)(C)CC(=O)N1CCC(c2ccc(C(=O)NCc3ccn4ccnc4c3)cc2)C1` (stereo not drawn) [Example 602, 4-[1-(3,3-dimethylbutanoyl)pyrrolidin-3-yl]-N-(imidazo[1,2-a]pyridin-7-ylmethyl)benzamide], the IC50 turned out to be 0.000887 µM on NAMPT, 0.786 µM in test [1] and 0.0486 µM with PC3 cells.
The matching figures for `N#Cc1cccc(C(=O)N2CCC(c3ccc(C(=O)NCc4ccn5ccnc5c4)cc3)C2)c1` (stereo not drawn) [Example 603, 4-[1-(3-cyanobenzoyl)pyrrolidin-3-yl]-N-(imidazo[1,2-a]pyridin-7-ylmethyl)benzamide]: 0.00101 µM, 1.03 µM and 0.695 µM.
For `COc1cccc(C(=O)N2CCC(c3ccc(C(=O)NCc4ccn5ccnc5c4)cc3)C2)c1` (stereo not drawn) [Example 604, N-(imidazo[1,2-a]pyridin-7-ylmethyl)-4-[1-(3-methoxybenzoyl)pyrrolidin-3-yl]benzamide] the same measures were 0.000843 µM, 0.151 µM and 0.0101 µM.
Turning to `COc1ccc(C(=O)N2CCC(c3ccc(C(=O)NCc4ccn5ccnc5c4)cc3)C2)cc1` (stereo not drawn) [Example 605, N-(imidazo[1,2-a]pyridin-7-ylmethyl)-4-[1-(4-methoxybenzoyl)pyrrolidin-3-yl]benzamide], the values for the concentration for half-maximal inhibition (IC50) (at NAMPT; in test [1]; in the test on PC3 cells) were 0.000886 µM, 0.559 µM and 0.0661 µM, respectively.
For the molecule `Cn1cccc1C(=O)N1CCC(c2ccc(C(=O)NCc3ccn4ccnc4c3)cc2)C1` (stereo not drawn) [Example 606, N-(imidazo[1,2-a]pyridin-7-ylmethyl)-4-{1-[(1-methyl-1H-pyrrol-2-yl)carbonyl]pyrrolidin-3-yl}benzamide], the IC50 turned out to be 0.000169 µM at NAMPT, 0.281 µM in test [1] and 0.0348 µM in the test with PC3 cells.
The matching figures for `O=C(NCc1ccn2ccnc2c1)c1ccc(C2CCN(C(=O)CC3CCCCC3)C2)cc1` (stereo not drawn) [Example 607, 4-[1-(cyclohexylacetyl)pyrrolidin-3-yl]-N-(imidazo[1,2-a]pyridin-7-ylmethyl)benzamide]: 0.000796 µM, 0.478 µM and 0.0744 µM.
For the molecule `O=C(NCc1ccn2ccnc2c1)c1ccc(C2CCN(C(=O)c3ccncc3)C2)cc1` (stereo not drawn) [Example 608, N-(imidazo[1,2-a]pyridin-7-ylmethyl)-4-[1-(pyridin-4-ylcarbonyl)pyrrolidin-3-yl]benzamide], the IC50 was determined as 0.00051 µM at NAMPT, 0.481 µM in test [1] and 0.148 µM in the test with PC3 cells.
Take `O=C(NCc1ccn2ccnc2c1)c1ccc(C2CCN(C(=O)c3cccnc3)C2)cc1` (stereo not drawn) [Example 609, N-(imidazo[1,2-a]pyridin-7-ylmethyl)-4-[1-(pyridin-3-ylcarbonyl)pyrrolidin-3-yl]benzamide]: the 50% inhibitory concentration (IC50) on NAMPT is 0.00062 µM; in test [1], 0.598 µM; in the test with PC3 cells, 0.142 µM.
Take `O=C(NCc1ccn2ccnc2c1)c1ccc(C2CCN(C(=O)C3CCCCC3)C2)cc1` (stereo not drawn) [Example 610, 4-[1-(cyclohexylcarbonyl)pyrrolidin-3-yl]-N-(imidazo[1,2-a]pyridin-7-ylmethyl)benzamide]: the IC50 on NAMPT worked out at 0.000762 µM; in test [1], 0.751 µM; with PC3 cells, 0.0744 µM.
For `O=C(NCc1ccn2ccnc2c1)c1ccc(C2CCN(C(=O)c3ccccn3)C2)cc1` (stereo not drawn) [Example 611, N-(imidazo[1,2-a]pyridin-7-ylmethyl)-4-[1-(pyridin-2-ylcarbonyl)pyrrolidin-3-yl]benzamide] the same measures were 0.000621 µM, 0.288 µM and 0.0709 µM.
For `O=C(NCc1ccn2ccnc2c1)c1ccc(C2CCN(C(=O)c3ccoc3)C2)cc1` (stereo not drawn) [Example 612, 4-[1-(furan-3-ylcarbonyl)pyrrolidin-3-yl]-N-(imidazo[1,2-a]pyridin-7-ylmethyl)benzamide] the same measures were 0.000919 µM, 0.706 µM and 0.695 µM.
With `O=C(NCc1ccn2ccnc2c1)c1ccc(C2CCN(C(=O)c3nccs3)C2)cc1` (stereo not drawn) [Example 613, N-(imidazo[1,2-a]pyridin-7-ylmethyl)-4-[1-(1,3-thiazol-2-ylcarbonyl)pyrrolidin-3-yl]benzamide], the IC50 on NAMPT came out at 0.000916 µM; in test [1], 0.347 µM; in the test on PC3 cells, 0.14 µM.
Take `CC1(C(=O)N2CCC(c3ccc(C(=O)NCc4ccn5ccnc5c4)cc3)C2)CCCCC1` (stereo not drawn) [Example 614, N-(imidazo[1,2-a]pyridin-7-ylmethyl)-4-{1-[(1-methylcyclohexyl)carbonyl]pyrrolidin-3-yl}benzamide]: the IC50 stood at 0.00067 µM on NAMPT, 0.216 µM in test [1] and 0.00572 µM in the test with PC3 cells.
For `CC(C)C(C)C(=O)N1CCC(c2ccc(C(=O)NCc3ccn4ccnc4c3)cc2)C1` (stereo not drawn) [Example 615, 4-[1-(2,3-dimethylbutanoyl)pyrrolidin-3-yl]-N-(imidazo[1,2-a]pyridin-7-ylmethyl)benzamide] the same measures were 0.00079 µM, 0.544 µM and 0.0188 µM.
`Cc1cccc(C(=O)N2CCC(c3ccc(C(=O)NCc4ccn5ccnc5c4)cc3)C2)c1` (stereo not drawn) [Example 616, N-(imidazo[1,2-a]pyridin-7-ylmethyl)-4-[1-(3-methylbenzoyl)pyrrolidin-3-yl]benzamide]: the figures for the IC50 (at NAMPT; in test [1]; with PC3 cells) were 0.00049 µM, 0.174 µM and 0.0326 µM, respectively.
In the case of `O=C(NCc1ccn2ccnc2c1)c1ccc(C2CCN(C(=O)c3ccsc3)C2)cc1` (stereo not drawn) [Example 617, N-(imidazo[1,2-a]pyridin-7-ylmethyl)-4-[1-(thiophen-3-ylcarbonyl)pyrrolidin-3-yl]benzamide], the IC50 on NAMPT was determined as 0.000645 µM; in test [1], 0.164 µM; in the test on PC3 cells, 0.0826 µM.
The matching figures for `O=C(NCc1ccn2ccnc2c1)c1ccc(C2CCN(C(=O)c3cccc(OC(F)(F)F)c3)C2)cc1` (stereo not drawn) [Example 618, N-(imidazo[1,2-a]pyridin-7-ylmethyl)-4-{1-[3-(trifluoromethoxy)benzoyl]pyrrolidin-3-yl}benzamide]: 0.000751 µM, 0.5 µM and 0.125 µM.
For `Cc1ccsc1C(=O)N1CCC(c2ccc(C(=O)NCc3ccn4ccnc4c3)cc2)C1` (stereo not drawn) [Example 619, N-(imidazo[1,2-a]pyridin-7-ylmethyl)-4-{1-[(3-methylthiophen-2-yl)carbonyl]pyrrolidin-3-yl}benzamide] the same measures were 0.000616 µM, 0.0793 µM and 0.0033 µM.
For `O=C(NCc1ccn2ccnc2c1)c1ccc(C2CCN(C(=O)c3cccc(C(F)(F)F)c3)C2)cc1` (stereo not drawn) [Example 620, N-(imidazo[1,2-a]pyridin-7-ylmethyl)-4-{1-[3-(trifluoromethyl)benzoyl]pyrrolidin-3-yl}benzamide] the same measures were 0.001 µM, 0.71 µM and 0.131 µM.
